These results are taken from ChEMBL document CHEMBL4602732, “Optimizing Pyrazolopyrimidine Inhibitors of Calcium Dependent Protein Kinase 1 for Treatment of Acute and Chronic Toxoplasmosis” (J Med Chem, 2020).

Molecules are shown by their SMILES. Bounds are passed on as bounds.

One data set deals with Toxoplasma gondii. Briefly: Antiparasitic activity against 2F clone of type 1 Toxoplasma gondii RH tachyzoites expressing beta-galactosidase infected in HFF assessed as reduction in parasite growth measured after 72 hrs by chlorophenol Red-beta-D-galactopyranoside substrate based assay. The data set is classed as functional, organism-based.
Data set [1] can be described thus: Inhibition of Toxoplasma gondii full-length wild-type C-terminal His-tagged CDPK1 expressed in Escherichia coli BL21(DE3)V2RpAcYc-LIC+LamP using syntide-2 peptide as substrate incubated for 20 to 40 mins by ELISA. For orientation: ELISA stands for enzyme-linked immunosorbent assay.
Data set [2] in a line: Half life in mouse liver microsomes at 10 uM preincubated for 10 mins followed by NADPH addition by LC-MS/MS analysis. The data set is classed as ADME, Microsome. Conditions: for t1/2: microsomes, 10 µM. A general note: Microsomes from liver hold many membrane-bound enzymes, among them those of drug oxidation.
A short description of data set [3]: Half life in human liver microsomes at 10 uM preincubated for 10 mins followed by NADPH addition by LC-MS/MS analysis. The data set is classed as ADME, Microsome. Conditions: for t1/2: microsomes, 10 µM; for half-life at 10 µM: liver microsomes.
Data set [4] is described as follows: Cytotoxicity against human CMEC/D3 cells assessed as cell growth at 20 uM measured after 72 hrs by cellTiter 96 AQueous non-radioactive cell proliferation assay relative to control. The data set is classed as cell-based, hCMEC/D3. Conditions: read-out: Activity.
Data set [5] is described as follows: Cytotoxicity against HFF monolayers assessed as cell growth measured after 72 hrs by luciferase reporter gene assay relative to control. The note with it: human, read-out: Activity. The data set is classed as cell-based.
Data set [6] in a line: Cytotoxicity against human SH-SY5Y cells assessed as cell growth at 20 uM measured after 72 hrs by cellTiter 96 AQueous non-radioactive cell proliferation assay relative to control. The data set is classed as cell-based. The note with it: read-out: Activity.

In general, EC50 refers to the concentration at which the effect is half-maximal. As usually defined, the IC50 is the concentration that gives 50% inhibition. A lower IC50 goes with greater potency. Turning to `Nc1ncnc2c1c(Oc1cc(Cl)ccn1)nn2CC1CC1`, in the data set on Toxoplasma gondii, the EC50 worked out at 71 nM. Besides, the IC50 in data set [1] was found to be 9 nM. Moreover, the t1/2 in data set [2] is recorded as 4 min; in data set [3], 47 min.

As usually defined, the half-life is the time needed for the level to fall by half in the phase considered. On to `CC(C)(C)n1nc(Oc2cc(C#N)ccn2)c2c(N)ncnc21`, for which, in the data set on Toxoplasma gondii, the EC50 was 112 nM. This molecule came in with an IC50 in data set [1] of 18 nM. The same molecule showed a t1/2 in data set [2] of 46 min. Also, the half-life at 10 µM in data set [3] is over 145 min.

As for `Nc1ncnc2c1c(Oc1cc(C(F)(F)F)ccn1)nn2[C@H]1C[C@@H](O)C1`, the EC50 in the data set with Toxoplasma gondii came to 281 nM. This molecule also had an IC50 in data set [1] of 39 nM. This molecule gave a t1/2 in data set [2] of 48 min. The same molecule came in with a half-life at 10 µM in data set [3] of over 145 min.

On to `CC(C)(C)n1nc(Oc2cc(O)ccn2)c2c(N)ncnc21`, for which the EC50 with Toxoplasma gondii worked out at 17 nM. Also, 14 nM corresponded to half-maximal inhibition in data set [1] (IC50). Besides, the t1/2 came to 37 min in data set [2] and 84 min in data set [3].

For the molecule `CO[C@H]1CC[C@H](n2nc(Oc3cc(C(F)(F)F)ccn3)c3c(N)ncnc32)CC1`, the EC50 in the data set with Toxoplasma gondii came out at 62 nM. The molecule further displayed an IC50 in data set [1] of 38 nM. Further, the t1/2 in data set [2] came out at 13 min. Moreover, the half-life at 10 µM in data set [3] was over 145 min.

Turning to `CO[C@@]12[C@H](COC(N)=O)C3=C(C(=O)C(C)=C(N)C3=O)N1C[C@@H]1N[C@@H]12` [MITOMYCIN], the viability at 72 h, 20 µM in data set [4] was 5%; in data set [6] it was 0%. The viability at 72 h in data set [5] turned out to be 25.8%.

With `Nc1ncnc2c1c(Oc1cccc(Cl)c1)nn2[C@H]1C[C@H](F)C1`, the EC50 in the data set with Toxoplasma gondii turned out to be 498 nM. In data set [1], the IC50 was 25 nM. Moreover, the t1/2 came to 3.9 min in data set [2] and 9.2 min in data set [3].

`CO[C@H]1CC[C@@H](n2nc(Oc3cc(C(F)(F)F)ccn3)c3c(N)ncnc32)CC1`: in the data set with Toxoplasma gondii, the EC50 turned out to be 84 nM. In data set [1], this molecule showed an IC50 of 45 nM. Also, the t1/2 in data set [2] was 2 min; in data set [3], 19 min.

As for `Nc1ncnc2c1c(Oc1cc(C(F)(F)F)ccn1)nn2[C@H]1CC[C@H](O)CC1`, the EC50 with Toxoplasma gondii was found to be 29 nM. This molecule came in with an IC50 in data set [1] of 16 nM. For the same molecule, the t1/2 in data set [2] stood at 33 min. In data set [3], the half-life at 10 µM was over 145 min.

Take `Nc1ncnc2c1c(Oc1cc(C(F)(F)F)ccn1)nn2[C@H]1CC[C@H](CO)CC1`: the EC50 in the data set with Toxoplasma gondii was determined as 25 nM. The molecule further had an IC50 in data set [1] of 10 nM. The t1/2 in data set [2] is 23 min. The half-life at 10 µM in data set [3] was over 145 min.

Consider `N#Cc1ccnc(Oc2nn([C@H]3C[C@@H](O)C3)c3ncnc(N)c23)c1`, for which the EC50 in the data set on Toxoplasma gondii is 956 nM. Besides, the IC50 in data set [1] amounted to 18 nM. In addition, the half-life at 10 µM in data set [2] (liver microsomes) and in data set [3] was over 145 min each time.

Regarding `Nc1ncnc2c1c(Oc1cccc(C(F)(F)F)c1)nn2[C@H]1C[C@H](O)C1`, in the data set on Toxoplasma gondii, the EC50 is 482 nM. The molecule further came in with an IC50 in data set [1] of 48 nM. Moreover, the t1/2 in data set [2] is on record as 22 min; in data set [3], 75 min.

For `Nc1ncnc2c1c(Oc1cc(C(F)(F)F)ccn1)nn2[C@@H]1CC[C@H](N)C1`, in the data set with Toxoplasma gondii, the EC50 was 134 nM. In data set [1], the midpoint of inhibition, the IC50, lay at 42 nM. Besides, the t1/2 in data set [2] turned out to be 84 min. In data set [3], this molecule returned a half-life at 10 µM of over 145 min.

On to `Nc1ncnc2c1c(Oc1cc(C(F)(F)F)ccn1)nn2[C@H]1CC[C@@H](CO)CC1`, for which the EC50 with Toxoplasma gondii was 70 nM. Besides, the IC50 in data set [1] amounted to 15 nM. In addition, the values for the t1/2 in data set [2] and in data set [3] were 6.5 min and 96 min, respectively.

Consider `Nc1ncnc2c1c(Oc1cc(C(F)(F)F)ccn1)nn2C1CCC(O)C1` (centres undefined), for which the concentration for a half-maximal effect (EC50) with Toxoplasma gondii amounted to 58 nM. The same molecule registered an IC50 in data set [1] of 24 nM. Further, the t1/2 in data set [2] was 18 min. For the same molecule, the half-life at 10 µM in data set [3] is over 145 min.

Regarding `Nc1ncnc2c1c(Oc1cc(C(F)(F)F)ccn1)nn2[C@H]1C[C@H](O)C1`, in the data set with Toxoplasma gondii, the EC50 amounted to 67 nM. For the same molecule, 25 nM corresponded to half-maximal inhibition in data set [1] (IC50). This molecule also gave a t1/2 in data set [2] of 51 min. The same molecule showed a half-life at 10 µM in data set [3] of over 145 min.

On to `Nc1ncnc2c1c(Oc1cc(C(F)(F)F)ccn1)nn2C1CCC(F)(F)CC1`, for which, in the data set on Toxoplasma gondii, the EC50 amounted to 142 nM. The same molecule registered an IC50 in data set [1] of 34 nM. The t1/2 in data set [2] stood at 26 min. Also, the half-life at 10 µM in data set [3] was over 145 min.

In the case of `Nc1ncnc2c1c(Oc1cc(C(F)(F)F)ccn1)nn2[C@H]1CC[C@@H](O)CC1`, in the data set on Toxoplasma gondii, the EC50 was determined as 38 nM. The midpoint of inhibition in data set [1], the IC50, lay at 19 nM. The same molecule returned a t1/2 in data set [2] of 27 min. In data set [3], this molecule registered a half-life at 10 µM of over 145 min.

Turning to `Nc1ncnc2c1c(Oc1cc(O)ccn1)nn2[C@H]1C[C@H](F)C1`, in the data set with Toxoplasma gondii, the EC50 stood at 205 nM. In addition, 8.6 nM corresponded to half-maximal inhibition in data set [1] (IC50). Moreover, the t1/2 in data set [2] turned out to be 16 min; in data set [3], 62 min.

Turning to `Nc1ncnc2c1c(Oc1cc(C(F)(F)F)ccn1)nn2[C@H]1C[C@H](F)C1`, the EC50 in the data set on Toxoplasma gondii was determined as 189 nM. This molecule also gave an IC50 in data set [1] of 10 nM. In addition, the t1/2 in data set [2] amounted to 53 min; in data set [3], 122 min.
